Measured values: US5283243A, “Piperidinoalkylbenzoxazine and piperidinoalkylbenzothiazine compounds, and medicaments containing them” (Kali-Chemie Pharma GmbH, priority 1990, dated 1994)
Read-outs that look alike come from different tables or passages of the source.

Assays:
mice = assay: Determination of minimum toxic dose; assay type: in vivo; conditions: mouse, per os; lowest dose producing death or severe toxic symptoms, maximum dose 300 mg/kg, 24 hours
Description: 2. Determination of Minimum Toxic Dose
Maximum doses of 300 mg/kg of the test substance were administered orally to male mice weighing 20-25 g. The animals were observed carefully for 3 hours for toxicity symptoms. In addition, all symptoms and deaths were recorded over a period of 24 hours after administration. Associated symptoms were also observed and recorded. If death or severe toxic symptoms were observed, additional mice were administered increasingly lower doses. The lowest dose which produced death or severe toxic symptoms is given in the following Table B as the minimum toxic dose.

[1] = system: cyclooxygenase (6-keto-PGF1α release); assay: Cyclooxygenase inhibition: 6-keto-PGF1α release from zymosan-stimulated mouse peritoneal macrophage cells; assay type: cell-based; conditions: Peritoneal macrophage cell; zymosan-stimulated mouse peritoneal macrophage cells, 10^-5 mole/l; read-out: In vitro % inhibition upon release of 6-keto-PGF1α
Source text: (§1) 5. In vitro Determination of Cyclooxygenase Inhibition and 5-Lipoxygenase Inhibition
(§2) After a cell is activated, arachidonic acid contained in cell membranes is metabolized in two ways. Leucotrienes, inter alia leucotriene C4, are formed due to the action of the enzyme 5-lipoxyqenase (=5-LO), and prostanoids are formed due to the action of the enzyme cyclooxygenase (=CO). In in vitro systems these metabolites are secreted from the cell.
(§3) To evaluate the cyclooxygenase-inhibiting and 5-lipoxygenase-inhibiting properties of the test substances, their inhibitory activity on the biosynthesis of the arachidonic acid derivatives leucotriene C4 (=LTC4) and 6-keto-prostaglandin F1α (=6-keto-PGF1 α) was determined in vitro on mouse peritoneal macrophage cells. For this purpose the LTC4 and 6-keto-PGF1 α contents of a mouse peritoneal macrophage cell culture medium were determined by zymosan stimulation as described by Scott et al. (J. Exp. Med. 152 (1980), 324-335) and by Fradin et al., (Prostaglandins, 33 (1987), 579-589).
(§4) A cell suspension containing peritoneal cells from male mice 8-10 weeks old was obtained in a known manner. A solution marketed under the designation RPMI 1640 (Manufactured by Gibco) was used as the cell culture medium, to which heparin (10 international units/ml) and antibiotics were added according to the procedure of Bonney et al. (Biochem. J. 176 (1978) 422-433). The cell suspension was adjusted to a cell concentration of 10^6 cells per ml and distributed uniformly on titer dishes containing 24 1-ml titer cells (wells). These were kept for two hours in a humidified incubator filled with air enriched with 7% CO2. Cells not adhering to the titer well walls were then removed by washing. The remaining macrophage cells adhering to the walls were incubated for about 12 hours in a suspension medium to which 0.1% of bovine serum albumin (BSA=Bovine Serum Albumin) was added. The suspension medium was then replaced by a Hanks salt solution (=Hanks Balanced Salt Solution=HBSS) with 10 mmoles of Hepes (=hydroxyethylpiperazinoethanesulfonic acid) to which a 0.1% strength solution of the test substances in aqueous, 1% strength dimethylformamide or only the solvent had been added. After 15 minutes the arachidonic acid metabolism was stimulated by adding […] of zymosan (=glycoprotein mixture isolated from cell walls of beer yeast, Saccharomyces cerevisiae, Manufactured by Sigma Chemical Co., Munich) per titre cell. After 2 hours samples of the respective supernatant liquid in each cell were examined for their 6-keto-PGF1α and LTC4 contents by an enzyme immunoassay (=EIA). This EIA is carried out following the method of Pradelles et al. (Analytical Chem. 57 (1985), 1170-1173). The determination of LTC4 and the determination of 6-keto-PGF1α were each carried out on suitable dilutions of the samples (1:50 to 1:250 for the LTC4 determination and 1:250 to 1:1,250 for the 6-keto-PGF1α determination) in comparison with a comparative scale. To determine the inhibiting effect of a 10^-5 molar concentration of the compounds, the amounts of reference eicosanoid were determined, and the inhibiting effect was calculated therefrom in % inhibition compared to the measurements of the zymosan controls.

[2] = system: 5-lipoxygenase (LTC4 release); assay: 5-Lipoxygenase inhibition: LTC4 release from zymosan-stimulated mouse peritoneal macrophage cells; assay type: cell-based; conditions: Peritoneal macrophage cell; zymosan-stimulated mouse peritoneal macrophage cells, 10^-5 mole/l; read-out: In vitro % inhibition upon release of LTC4
Source text: as §1, §2, §3, §4

[3] = system: Passive cutaneous anaphylaxis (PCA); assay: Inhibition of passive cutaneous anaphylaxis (PCA); assay type: in vivo, Sprague-Dawley rats; conditions: Rattus norvegicus, 1 h, read-out: % inhibition of Passive cutaneous anaphylaxis (PCA)
Description: (§5) 1. Determining Inhibition of Passive Cutaneous Anaphylaxis (PCA) and Histamine-Induced Anaphylactoid Cutaneous Reaction
The PCA reaction is carried out following the methods described by Goose et al. (J.N. Immunology 16 (1969), 749) and by Martin et al. (Arch. Pharmacol. 316 (1981), 186).
The IgE-rich ovalbumin antiserum used in the test was obtained from immunized Brown-Norway rats. The were immunized with an intraperitoneal injection of a mixture of 100 μg of ovalbumin with a Bordetella pertussis suspension (Vaxicoq™, Manufactured by Institute Merieux, containing 5×10^9 organisms and 1.25 mg Al(OH)3). After 20 days the animals were re-immunized with a further intraperitoneal injection of a solution of 10 μg ovalbumin in 0.5 ml physiological saline solution. After a further four days the blood was removed from the animals and centrifuged. The resulting antiserum was stored at -20° C. until use.
(§6) The inhibition of the passive cutaneous anaphylaxis and of the anaphylactoid cutaneous reaction induced by histamine was determined as follows:
Sprague-Dawley rats having a body weight of 150-180 g were injected intradermally in one flank with 50 μl of a 1:75 dilution of the IgE-rich ovalbumin antiserum in physiological saline solution to passively sensitize them to ovalbumin.
24 hours after sensitization a solution of 8.25 mg/kg of ovalbumin and 26.4 mg/kg of a blue dye (Evans's Blue) was administered to the rats intravenously according to Martin et al. to trigger passive cutaneous anaphylaxis.
(§7) On the day of the experiment the test substances were dissolved in distilled water which contained 1 vol. % dimethylformamide and 1 vol. % of Tween™ 20 (=polyoxyethylene (20) sorbitan monolaurate). One hour before administration of the ovalbumin challenge, each animal was orally administered 2×10^-5 mole/kg of test substance in 0.5 ml of solution. For comparison purposes a control group received only the solvent.
(§8) The edematous anaphylactic (PCA) and anaphylactoid (histamine-induced) reactions caused by the stimulation of the intravenous ovalbumin injection, which manifested themselves by edema formation, swelling and exudation of blue dye, were evaluated 30 minutes after their initiation by the intravenous ovalbumin injection. This was done by visually determining the extent to which the blue dye emerged at the sites of edema formation. The percentage inhibition of anaphylactic and anaphylactoid reactions induced by the test substances in comparison with the reactions of the control animals not treated with any test substance was determined using comparison scales.
(§9) The results obtained using compounds of formula I according to the foregoing test methods are shown in the following Table A. The example numbers given for the compounds of formula I relate to the subsequent preparative examples.

[4] = system: Histamine-induced anaphylactoid reaction; assay: Inhibition of histamine-induced anaphylactoid cutaneous reaction; assay type: in vivo, Sprague-Dawley rats; conditions: Rattus norvegicus, 1 h, read-out: % inhibition of Histamine-induced anaphylactoid reaction
Description: as §5, §6
To determine the histamine-induced anaphylactoid skin reaction, the animals are injected intradermally in the flank opposite to the antiserum administration with 50 μl of a physiological saline solution containing 0.8 mg/ml histamine directly before the intravenous injection of the solution containing the ovalbumin and the blue dye.
as §7, §8, §9

histamine-(H1)-receptor = target: T1, histamine-(H1)-receptor (Cavia porcellus, UniProt P31389); assay: Anti-histamine-(H1) effect, inhibition of histamine-induced contraction of isolated guinea pig ileum in vitro; assay type: cell-based, Dunkin Hartley guinea pigs; conditions: histamine 5 × 10^-6 mole/l, test substance 10^-6 mole/l
T1 construct: Segments of the ileum 1.5 cm long from Dunkin Hartley guinea pigs; from tissue; host or cells: isolated ileum segments of Dunkin Hartley guinea pigs
T1 sequence (P31389 whole entry): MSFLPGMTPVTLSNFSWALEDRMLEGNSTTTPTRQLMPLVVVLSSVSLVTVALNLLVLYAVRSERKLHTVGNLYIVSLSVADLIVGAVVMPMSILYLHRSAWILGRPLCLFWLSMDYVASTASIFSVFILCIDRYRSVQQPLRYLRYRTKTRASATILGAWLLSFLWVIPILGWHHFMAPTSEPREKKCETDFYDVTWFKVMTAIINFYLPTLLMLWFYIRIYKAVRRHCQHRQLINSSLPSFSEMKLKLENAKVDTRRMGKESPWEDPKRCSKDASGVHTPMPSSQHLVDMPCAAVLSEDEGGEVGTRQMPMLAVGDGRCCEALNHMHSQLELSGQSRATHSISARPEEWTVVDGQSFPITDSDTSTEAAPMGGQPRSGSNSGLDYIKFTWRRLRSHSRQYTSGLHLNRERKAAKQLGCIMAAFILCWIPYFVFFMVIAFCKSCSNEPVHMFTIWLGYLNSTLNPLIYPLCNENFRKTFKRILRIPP
Description: 3. Investigation of Anti-Histamine-(H1) Effect Based on Histamine-(H1)-Receptor Antagonism In Vitro
To investigate the histamine-(H1)-receptor antagonism of the test substances, the inhibiting effect of the substances on histamine-induced contractions of the smooth muscle was determined in vitro on the isolated organ. Isolated strips of organ from the ileum are suitable for this purpose. In an organ bath of physiological saline solution the smooth muscle strips react to the addition of histamine by contracting. […] The extent of regression of the contraction is an indication of the anti-histamine-(H1) activity of the compounds. The investigation was carried out analogously to the method originally described by Magnus (Pfluegers Arch. 102, 123 (1904)). Procedure for determining the smooth muscle contraction inhibiting effect on isolated guinea pig ileum induced by a 5×10^-6 molar histamine concentration.
Segments of the ileum 1.5 cm long from Dunkin Hartley guinea pigs having a body weight of 300 500 g were used for the test. Each strip was placed in an organ bath of 10 ml of physiological saline solution according to Krebs-Henseleit and attached to a conventional apparatus for isotonic measurement of changes in length of the ileum strips (automated Celaster measuring apparatus), so that the tissue was under 1 g of tension. The bath was kept at a pH of 7.4 and gassed with a mixture of 5% CO2 and 95% 02. After an equilibration phase, an isotonic contraction of the tissue was induced by adding histamine in a final concentration of 5×10^-6 mole/liter and washing it out again after a contact time of 30 seconds. Only tissues samples from which three reproducible contractions were obtained at 10 minute intervals were used in the subsequent test. The test substances were then added in a final concentration of 10^-6 mole/liter, and after 30 seconds contact time histamine was again added up to a concentration of 5×10^-6 mole/liter. The resulting contractions were measured over 30 seconds. The tissue was then washed several times over a period of 10 minutes. Histamine was then added again to stimulate a contraction. The resulting contractions were again measured over 30 seconds. The difference between the amplitude of the contraction obtained by histamine addition alone and the amplitude of the contraction obtained in the presence of the test substance was determined and expressed in terms of % inhibition.
The inhibiting effects on the contractions induced by histamine 30 seconds after administration of the test substance and on the contractions induced by the addition of histamine 10 minutes later are listed in the table.

[5] = rats, 2 × 10^-5 mole/kg dose per os, one hour before ovalbumin challenge
[6] = rats, 2 × 10^-5 mole/kg dose per os, one hour before challenge

Row | SMILES | Minimum toxic dose (mice) | inhibition at 10 µM [1] | inhibition at 10 µM [2] | inhibition in vivo at 20 µmol/kg [3, 5] | inhibition in vivo at 20 µmol/kg [4, 6] | also measured
1 | O=C(c1ccc(F)cc1)C1CCN(C2Sc3ccccc3NC2=O)CC1 (centres unmarked) [Example 4, 2-[4-(4-fluorobenzoyl)-piperidin-1-yl]-2H-1,4-benzothiazine-3(4H)-one] | 300 mg/kg | 71% | 0% | – | – | –
2 | O=C1Nc2ccccc2SC1CCCCN1CCC(Nc2nc3ccccc3n2Cc2ccc(F)cc2)CC1 (centres unmarked) [Example 1, 2-{4-[4-(N-(1-(4-fluorophenylmethyl)-1H-benzimidazol-2-yl)-amino)-piperidin-1-yl]-butyl}-2H-1,4-benzothiazine-3(4H)-one] | – | 52% | 87% | 85% | 85% | –
3 | COc1ccc2c(c1)SC(CCCCN1CCC(C(=O)c3ccc(F)cc3)CC1)C(=O)N2 (centres unmarked) [Example 18, 7-methoxy-2-(4-[4-(4-fluorobenzoyl)-piperidin-1-yl]-butyl)-2H-1,4benzothiazine-3(4H)-one] | – | – | – | 90% | 50% | –
4 | O=C1Nc2ccccc2SC1CCCCN1CCC(O)(c2ccccc2)CC1 (centres unmarked) [Example 11] | – | – | – | 45% | 20% | –
5 | O=C1Nc2ccccc2OC1CCCCN1CCC(c2ccccc2)CC1 (centres unmarked) [Example 9] | – | – | – | – | – | in vitro (H1)-receptor antagonism, % inhibition of histamine-induced ileum contractions after 30 seconds (histamine-(H1)-receptor): 35%; in vitro (H1)-receptor antagonism, % inhibition of histamine-induced ileum contractions after 10 minutes (histamine-(H1)-receptor): 12%
6 | O=C1Nc2ccccc2OC1CCCCN1CC=C(c2ccccc2)CC1 (centres unmarked) [Example 12] | – | – | – | 35% | 20% | –
7 | O=C1Nc2ccccc2SC1N1CCC(Cc2ccccc2)CC1 (centres unmarked) [Example 16] | > 300 mg/kg | 70% | 97% | – | – | –
8 | O=C1Nc2ccccc2OC1CCCCN1CCC(O)(c2ccccc2)CC1 (centres unmarked) [Example 13] | – | – | – | – | – | in vitro (H1)-receptor antagonism, % inhibition of histamine-induced ileum contractions after 30 seconds (histamine-(H1)-receptor): 49%; in vitro (H1)-receptor antagonism, % inhibition of histamine-induced ileum contractions after 10 minutes (histamine-(H1)-receptor): 8%
9 | S=C1Nc2ccccc2OC1CCCN1CCC(Cc2ccccc2)CC1 (centres unmarked) [Example 3, 2-[3-(4-benzylpiperidin-1-yl)-propyl]-2H-1,4-benzoxazine-3(4H)-thione] | 300 mg/kg | 17% | 16% | – | – | –
10 | O=C1Nc2ccccc2SC1CCCCN1CC=C(c2ccccc2)CC1 (centres unmarked) [Example 10, 2-[4-(4-phenyl-1,2,3,6-tetrahydropyridin-1-yl)-butyl]-2H-1,4-benzothiazine-3(4H)one] | 300 mg/kg | 30% | 37% | 55% | 30% | –
11 | N#CC1(c2ccccc2)CCN(CCCCC2Sc3ccccc3NC2=O)CC1 (centres unmarked) [Example 15] | 300 mg/kg | – | – | – | – | inhibition in vivo at 20 µmol/kg [3]: 30%; inhibition in vivo at 20 µmol/kg [4]: 10%
12 | O=C1Nc2ccccc2OC1CCCN1CCC(Cc2ccccc2)CC1 (centres unmarked) [Example 2, 2-[3-(4-benzylpiperidin-1-yl)-propyl]-2H-1,4-benzoxazine-3(4H)-one] | – | 13% | 54% | – | – | –
13 | O=C1Nc2ccc(Cl)cc2SC1CCCCN1CCC(Nc2nc3ccccc3n2Cc2ccc(F)cc2)CC1 (centres unmarked) [Example 20] | – | – | – | 20% | 40% | –
